Measured values reported in PMC6499206, “Quantification of Volatile Metabolites Derived From Garlic (Allium sativum) in Human Urine” (Frontiers in Nutrition, 2019).

Assay: Quantification of garlic-derived metabolites in human urine after ingestion of 3 g raw garlic (SIDA, SAFE, HRGC-MS / HRGC-GC-MS)
Type: in vivo
Parameters: metabolite in urine related to creatinine: unit not given here
Settings: for metabolite concentration in urine, creatinine-normalized / metabolite concentration in urine / time of highest concentration in urine after garlic consumption / highest detected concentration of the sample series: 3 g raw garlic; for highest detected concentration of the sample series: same bulb
From the text: Human urine samples were obtained from 18 volunteers (age 22–38 years, mean 27 years; 11 females, 7 males); thereby, one volunteer conducted the whole experimental series twice. At the time of examination, volunteers reported no known illness that might have potentially influenced the metabolism or the excretion of urine. The test persons were instructed to avoid foods that were rich in sulfur-containing substances at the testing day as well as 2 days preceding the testing day, namely garlic, onion, wild garlic, chives, cabbage, and leek, and were only allowed to consume the garlic sample provided in the course of the experiments. Additionally, subjects were asked to keep records of the food (including food supplements) and beverages they consumed during these 3 testing days. Generally, the overall panelists' requirements were in accordance with our previous studies ([5], [16]).
On the sampling day, the outer garlic cloves of a whole garlic bulb were peeled and cut into ~3 mm cubes by using a garlic cutter (Genius GmbH, Limburg/Lahn, Germany). Subsequently these cubes were thoroughly mixed and aliquoted into 3 g portions. Three to four test persons conducted the experiment at the same day. Each test person was asked to ingest a garlic portion of 3 g. In total, eight consecutive urine samples were provided by each test person, comprising one whole urine set. The samples were collected in sterile brown glass bottles, with sampling times as follows: one sample was provided directly prior to garlic consumption. The series of the second to eighth sample was then obtained at about 0.5, 1, 2, 4, 6, 8, and 24 h after garlic consumption, respectively. Between the first urine sample (prior to garlic consumption) and the seventh urine sample (8 h after garlic consumption) test persons only spent urine at the specific time points mentioned before. Another sample was provided at the next morning (24 h after garlic consumption). Between the samples provided 8 and 24 h after garlic consumption no urine was collected. All samples were immediately placed into a −80°C freezer and were kept frozen until further analysis.
The samples of each set were termed according to their sampling time. The following list provides the time intervals that are related to the respective sample name: • - pre: before garlic consumption • - 0.5 h post: 0.4–0.8 h after garlic consumption • - 1 h post: 0.9–1.3 h after garlic consumption • - 2 h post: 1.8 h−2.2 h after garlic consumption • - 4 h post: 3.8–4.4 h after garlic consumption • - 6 h post: 5.8–6.4 h after garlic consumption • - 8 h post: 7.8–8.4 h after garlic consumption • - 24 h post: 23.8–25.6 h after garlic consumption
A creatinine kit (Labor+Technik Eberhard Lehmann GmbH, Berlin, Germany) was used to determine the creatinine content in each urine sample. The determination principle of this kit is based on the reaction of creatinine with picric acid under basic conditions (Jaffé reaction). The formed complex was detected photometrically at a wavelength of 492 nm.
For quantification purposes, the deuterated standards ^2H3-AMS, ^2H3-AMSO, and ^2H3-AMSO2 were added to the sample and stirred for 10 min. Subsequently, DCM was added in a ratio of 1:2 (DCM/human urine; v/v) and this solution was stirred for further 30 min at room temperature. To isolate the volatile fraction from the urine samples we then applied SAFE-distillation ([17]), thereby distilling the respective samples at 50°C. After completion of the distillation process, 10 mL of DCM were applied in each case to rinse the SAFE apparatus and to ensure complete transition of the volatile compounds. This process was repeated with another 10 mL of DCM. After thawing, the obtained aqueous distillate phase was extracted three times with 25 mL DCM. The organic phases were combined, dried over anhydrous Na2SO4 and concentrated to a total volume of 100 μL by means of Vigreux distillation and subsequent micro-distillation at 50°C. […]

For C=CCSC [AMS, allyl methyl sulfide], the “metabolite concentration in urine, creatinine-normalized” value (U XII, 2 h post (1.85 h)) was 1.3 µg/mmol creatinine, the “metabolite concentration in urine” value (U XII, 4 h post (3.80 h)) was 0.5 µg/kg and the “metabolite concentration in urine, creatinine-normalized” value (U XII, 4 h post (3.80 h)) was 0.2 µg/mmol creatinine. The “metabolite concentration in urine” value (U XII, 6 h post (5.82 h)) was 0.4 µg/kg, the “metabolite concentration in urine, creatinine-normalized” value (U XII, 6 h post (5.82 h)) was 0.1 µg/mmol creatinine and the “metabolite concentration in urine” value (U XII, 8 h post (7.82 h)) was 0.3 µg/kg. The “metabolite concentration in urine, creatinine-normalized” value (U XII, 8 h post (7.82 h)) was 0.1 µg/mmol creatinine, the “metabolite concentration in urine” value (U XII, 24 h post (23.92 h)) was “traces^1” and the “metabolite concentration in urine, creatinine-normalized” value (U XII, 24 h post (23.92 h)) was “traces^1”. The “metabolite concentration in urine” value (U XII, pre (-0.08 h)) was “traces^1”, the “metabolite concentration in urine, creatinine-normalized” value (U XII, pre (-0.08 h)) was “traces^1” and the “metabolite concentration in urine” value (U XIII, 0.5 h post (0.42 h)) was 0.2 µg/kg. For the same molecule, the “metabolite concentration in urine, creatinine-normalized” value (U XIII, 0.5 h post (0.42 h)) was 0.1 µg/mmol creatinine, the “metabolite concentration in urine” value (U XIII, 1 h post (0.92 h)) was 0.9 µg/kg and the “metabolite concentration in urine, creatinine-normalized” value (U XIII, 1 h post (0.92 h)) was 0.3 µg/mmol creatinine. The “metabolite concentration in urine” value (U XIII, 2 h post (1.92 h)) was 1.0 µg/kg, the “metabolite concentration in urine, creatinine-normalized” value (U XIII, 2 h post (1.92 h)) was 0.3 µg/mmol creatinine and the “metabolite concentration in urine” value (U XIII, 4 h post (3.92 h)) was 0.8 µg/kg. The “metabolite concentration in urine, creatinine-normalized” value (U XIII, 4 h post (3.92 h)) was 0.2 µg/mmol creatinine, the “metabolite concentration in urine” value (U XIII, 6 h post (5.92 h)) was 0.4 µg/kg and the “metabolite concentration in urine, creatinine-normalized” value (U XIII, 6 h post (5.92 h)) was 0.04 µg/mmol creatinine. The “metabolite concentration in urine” value (U XIII, 8 h post (7.92 h)) was 0.3 µg/kg, the “metabolite concentration in urine, creatinine-normalized” value (U XIII, 8 h post (7.92 h)) was 0.03 µg/mmol creatinine and the “metabolite concentration in urine” value (U XIII, 24 h post (23.92 h)) was “traces^1”. For the same molecule, the “metabolite concentration in urine, creatinine-normalized” value (U XIII, 24 h post (23.92 h)) was “traces^1”, the “metabolite concentration in urine” value (U XIII, pre (-0.08 h)) was “< LOD^1” and the “metabolite concentration in urine, creatinine-normalized” value (U XIII, pre (-0.08 h)) was “< LOD^1”. The “amounts detected in samples collected prior to garlic intervention” value (Urine III, VII, VIII, XI, XII, XVI, XVII, pre-ingestion samples) was at most 0.2 μg/mmol creatinine, the “time of highest concentration in urine after garlic consumption” value (Urine VIII) was 0.5 h and the “variation factor of the concentration maxima between test persons” value (Urine XIII-XVI, highest vs lowest maximum) was “up to 3.2”. The “highest detected concentration of the sample series” value (“highest detected concentration” below) (Urine XIII) was 0.3 μg/mmol creatinine, the “highest detected concentration” value (Urine XIV (AMS: printed Urine UIV)) was 0.4 μg/mmol creatinine and the “highest detected concentration” value (Urine XV) was 1.0 μg/mmol creatinine. For the same molecule, the “time of highest concentration in urine after garlic consumption” value (Urine XVI) was 4 h, the “highest detected concentration” value (Urine XVI) was 0.3 μg/mmol creatinine and the “metabolite in urine related to creatinine” value (from here on “metabolite in urine related”) (urine set U XIX, 0.5 h post (0.50 h), garlic 3.1133 g) was 0.1. The “metabolite in urine related” value (urine set U XIX, 1 h post (1.00 h), garlic 3.1133 g) was 1.5, the “metabolite in urine related” value (urine set U XIX, 2 h post (2.00 h), garlic 3.1133 g) was 0.4 and the “metabolite in urine related” value (urine set U XIX, 4 h post (4.00 h), garlic 3.1133 g) was 0.2. For the same molecule, the “metabolite in urine related” value (urine set U XIX, 6 h post (6.20 h), garlic 3.1133 g) was 0.1, the “metabolite in urine related” value (urine set U XIX, 8 h post (7.93 h), garlic 3.1133 g) was 0.1 and the “metabolite in urine related” value (urine set U XIX, 24 h post (23.98 h), garlic 3.1133 g) was 0.02. For the same molecule, the “metabolite in urine related” value (urine set U XIX, pre (-0.07 h), garlic 3.1133 g) was “< LOD^1”, the “metabolite in urine related” value (urine set U XVII, 0.5 h post (0.58 h), garlic 3.1559 g) was 0.01 and the “metabolite in urine related” value (urine set U XVII, 1 h post (1.00 h), garlic 3.1559 g) was 0.1. The “metabolite in urine related” value (urine set U XVII, 2 h post (2.17 h), garlic 3.1559 g) was 0.3, the “metabolite in urine related” value (urine set U XVII, 4 h post (4.00 h), garlic 3.1559 g) was 0.2 and the “metabolite in urine related” value (urine set U XVII, 6 h post (6.08 h), garlic 3.1559 g) was 0.02. For the same molecule, the “metabolite in urine related” value (urine set U XVII, 8 h post (8.00 h), garlic 3.1559 g) was 0.02, the “metabolite in urine related” value (urine set U XVII, 24 h post (23.92 h), garlic 3.1559 g) was “traces^1” and the “metabolite in urine related” value (urine set U XVII, pre (-0.08 h), garlic 3.1559 g) was “traces^1”. The “metabolite in urine related” value (urine set U XVIII, 0.5 h post (0.63 h), garlic 3.1981 g) was 0.2, the “metabolite in urine related” value (urine set U XVIII, 1 h post (1.05 h), garlic 3.1981 g) was 0.3 and the “metabolite in urine related” value (urine set U XVIII, 2 h post (2.00 h), garlic 3.1981 g) was 0.6. The “metabolite in urine related” value (urine set U XVIII, 4 h post (3.97 h), garlic 3.1981 g) was 0.4, the “metabolite in urine related” value (urine set U XVIII, 6 h post (5.97 h), garlic 3.1981 g) was 0.1 and the “metabolite in urine related” value (urine set U XVIII, 8 h post (8.30 h), garlic 3.1981 g) was 0.4. For the same molecule, the “metabolite in urine related” value (urine set U XVIII, 24 h post (24.13 h), garlic 3.1981 g) was “traces^1” and the “metabolite in urine related” value (urine set U XVIII, pre (-0.08 h), garlic 3.1981 g) was “< LOD^1”.
